Reference: ChEMBL document CHEMBL1150840, “Onnamide F: a new nematocide from a southern Australian marine sponge, Trachycladus laevispirulifer” (2001)
Calls of active or inactive are those of the source. The calls are words filed in the database; no cut-off is given here.

What was measured:
Haemonchus contortus [1] = assay: Nematocidal activity against Haemonchus contortus assessed as inhibition of larval development at L1 stage at high concentration; type: functional, organism-based
Saccharomyces cerevisiae = assay: Antifungal activity against Saccharomyces cerevisiae; type: functional
Bacillus subtilis = assay: Antibacterial activity against Bacillus subtilis; type: functional, organism-based
Escherichia coli = assay: Antibacterial activity against Escherichia coli; type: functional, organism-based
Haemonchus contortus [2] = assay: Nematocidal activity against Haemonchus contortus; type: functional

SMILES | inhibition (Haemonchus contortus [1]) | LD99 (Saccharomyces cerevisiae) | Activity (Bacillus subtilis) | Activity (Escherichia coli) | LD99 (Haemonchus contortus [2])
C=C1C[C@](OC)([C@H](O)C(=O)N[C@@H](OC)[C@@H]2C[C@@H](OC)C(C)(C)[C@@H](CC(O)CCC/C=C/C=C/C(=O)O)O2)O[C@H](C)[C@@H]1C (some centres not stated) [ONNAMIDE F] | Active | 1.4 µg/mL | inactive | inactive | 5.2 µg/mL
C=C1C[C@](OC)([C@H](O)C(=O)N[C@@H](OC)[C@@H]2C[C@@H](OC)C(C)(C)[C@@H](CC(O)CCC/C=C/C=C/C(=O)OC)O2)O[C@H](C)[C@@H]1C (some centres not stated) [ONNAMIDE F METHYL ESTER] | – | 5.2 µg/mL | – | – | 2.6 µg/mL
